# Tests used:
# Format in all cases: in vivo
# Venturia inaequalis = experiment: Venturia Test (apple)/protective; details: 240 h, apple plants, protective spray, evaluation 10 days after inoculation, 100% = no infection, read-out: Efficacy in %
# Method: Venturia Test (apple)/protective Solvents: 24.5 parts by weight of acetone • 24.5 parts by weight of dimethylacetamide Emulsifier: 1.0 parts by weight alkylaryl polyglycol ether To produce a suitable preparation of active compound, 1 part by weight of active compound is mixed with the stated amounts of solvent and emulsifier, and the concentrate is diluted with water to the desired concentration. To test for protective activity, young plants are sprayed with the preparation of active compound at the stated application rate. […] The plants are then placed in a greenhouse at about 21° C. and a relative atmospheric humidity of about 90%.
# Alternaria solani = experiment: Alternaria Test (tomato)/protective; details: tomato plants, protective spray, 750 g/ha, evaluation 7 days after inoculation; 100% = no infection
# Method: Alternaria Test (tomato)/protective Solvent: 49 parts by weight of N,N-dimethylformamide Emulsifier: 1 part by weight of alkylaryl polyglycol ether To produce a suitable preparation of active compound, 1 part by weight of active compound is mixed with the stated amounts of solvent and emulsifier, and the concentrate is diluted with water to the desired concentration. […] The plants then remain at 96% relative atmospheric humidity and at a temperature of 20° C.
# Pyricularia oryzae = details: rice plants, protective spray, 500 g/ha, evaluation 7 days after inoculation; 100% = no infection
Compound,pest or weed control at 100 g/ha (Venturia inaequalis) [%],further results
Fc1cc(F)c(-c2c(Cl)nc3ncnn3c2N2NC3CCC2C3)c(F)c1 (centres unmarked) [drawing 65],93,–
Fc1cccc(Cl)c1-c1c(Cl)nc2ncnn2c1N1NC2CCC1C2 (centres unmarked) [drawing 66],100,–
Fc1cccc(F)c1-c1c(Cl)nc2ncnn2c1N1CCCCN1 [drawing 67],96,–
Fc1cc(F)c(-c2c(Cl)nc3ncnn3c2N2CCCCN2)c(C(F)(F)F)c1 [drawing 68],100,–
Clc1ccc(-c2c(Cl)nc3ncnn3c2N2CCCCN2)c(Cl)c1 [drawing 69],95,–
Fc1cc(C(F)(F)F)cc(F)c1-c1c(Cl)nc2ncnn2c1N1CCCCN1 [drawing 70],100,–
Fc1cc(F)c(-c2c(Br)nc3ncnn3c2N2CCCCN2)c(F)c1 [drawing 71],93,–
Fc1cc(F)c(-c2c(Cl)nc3ncnn3c2N2Cc3ccccc3CO2)c(F)c1 [drawing 100],–,Efficacy in % (Alternaria solani): 100%
Fc1cc(F)c(-c2c(Cl)nc3ncnn3c2N2CCCCO2)c(F)c1 [drawing 101],–,Efficacy in % (Alternaria solani): 100%
Fc1ccc(-c2c(Cl)nc3ncnn3c2N2CCCCO2)c(Cl)c1 [drawing 102],–,Efficacy in % (Alternaria solani): 100%
Fc1cc(F)c(-c2c(Cl)nc3ncnn3c2N2CCC=N2)c(F)c1 [drawing 103],–,Efficacy in % (Alternaria solani): 95%
Fc1ccc(-c2c(Cl)nc3ncnn3c2N2CCCCO2)c(Cl)c1 [drawing 104],–,Efficacy in % (Pyricularia oryzae): 100%
Fc1ccc(-c2c(Cl)nc3ncnn3c2N2CCCCO2)c(F)c1 [drawing 105],–,Efficacy in % (Pyricularia oryzae): 100%
Fc1cccc(Cl)c1-c1c(Cl)nc2ncnn2c1N1CCCCN1 [drawing 106],–,Efficacy in % (Pyricularia oryzae): 100%
